Experimental data taken from patent US4367216A, “Triiodinated 5-aminoisophthalic acid derivatives” (Schering Aktiengesellschaft, priority 1979, dated 1983).
Blank lines part the entries; values can stand above or below the compound they belong to.

Assays:
[1] = tested on: lymphatic system; settings: cited from earlier work
[2] = Stability to light and air (iodine cleavage); format: physicochemical; settings: comparison table of A, B and C
[3] = tested on: lymphatic system of dogs; assay: Lymphography comparison of A, B and C after direct and indirect administration; format: in vivo
Protocol: The following table compares the advantageous effects of the compounds of this invention in lymphography, using as test substances thiodipropionic acid bis[3,5-bis-(2,3-dihydroxypropyl-N-methylcarbamoyl)-2,4,6-triiodoanilide] (A) and 4,4,6,6-tetramethyl-4,6-disila-5-oxanonanedioic acid bis[3,5-bis(2,3-dihydroxypropyl-N-methylcarbamoyl)-2,4,6-triiodoanilide] (B) in comparison with the fatty acid ethyl ester of iodinated oleum papaveris (C). The test results were determined on dogs using testing methods conventional in lymphography after direct and indirect administration.

[4] = cited from earlier work
[5] = dimeglumine salt; cited from earlier work
[6] = dogs, direct and indirect administration

SMILES: CC(=O)NCc1c(I)c(NC(C)=O)c(I)c(C(=O)O)c1I [iodamide]
Compatibility ([1]; crystalline suspensions, inflammation at the injection site and in the lymphatic system): insufficient compatibility
Excretion period ([1]; in vivo): days to weeks

SMILES: CN(CC(O)CO)C(=O)c1c(I)c(NC(=O)CC[Si](C)(C)O[Si](C)(C)CCC(=O)Nc2c(I)c(C(=O)N(C)CC(O)CO)c(I)c(C(=O)N(C)CC(O)CO)c2I)c(I)c(C(=O)N(C)CC(O)CO)c1I (stereo not drawn) [B, 4,4,6,6-tetramethyl-4,6-disila-5-oxanonanedioic acid bis[3,5-bis(2,3-dihydroxypropyl-N-methylcarbamoyl)-2,4,6-triiodoanilide]]
Stability [2]: Stable
Compatibility (embolism) [3, 6]: No Embolisms
Residence Time in the Body [3, 6]: Hours

SMILES: CC(=O)Nc1c(I)c(C(=O)N[C@H]2C(O)O[C@H](CO)[C@@H](O)[C@@H]2O)c(I)c(N(C)C(C)=O)c1I (stereo partly drawn) [metrizamide]
Osmotic pressure ([4]; solution of 300 mg iodine/ml, blood 7.5 atmospheres): 12 atmospheres
Usefulness for lymphography ([1]; in vivo): useless for lymphography

Stability [2]: Stable
Compatibility (embolism) ([3]; dog, in vivo): No Embolisms
Residence Time in the Body ([3]; dog, in vivo): Hours
SMILES: CN(CC(O)CO)C(=O)c1c(I)c(NC(=O)CCSCCC(=O)Nc2c(I)c(C(=O)N(C)CC(O)CO)c(I)c(C(=O)N(C)CC(O)CO)c2I)c(I)c(C(=O)N(C)CC(O)CO)c1I (stereo not drawn) [A, thiodipropionic acid bis[3,5-bis-(2,3-dihydroxypropyl-N-methylcarbamoyl)-2,4,6-triiodoanilide]]

SMILES: CNC(=O)c1c(I)c(NC(=O)CCCCC(=O)Nc2c(I)c(C(=O)O)c(I)c(C(=O)NC)c2I)c(I)c(C(=O)O)c1I [iocarmic acid]
Osmotic pressure compared with monomers ([4]; dimeglumine salt): somewhat lower osmotic pressure
Concentration in the urine [5]: increased
